Reference: patent US10233209B2, “Inhibitors of the farnesoid x receptor and uses in medicine” (The United States of America, as represented by the …, priority 2013, dated 2019)

Molecular target: T1, human FXR (Homo sapiens, UniProt Q96RI1)
T1 construct: expressed in transfected cells; host or cells: HEK293T
T1 sequence (Q96RI1 262-486 limits assumed): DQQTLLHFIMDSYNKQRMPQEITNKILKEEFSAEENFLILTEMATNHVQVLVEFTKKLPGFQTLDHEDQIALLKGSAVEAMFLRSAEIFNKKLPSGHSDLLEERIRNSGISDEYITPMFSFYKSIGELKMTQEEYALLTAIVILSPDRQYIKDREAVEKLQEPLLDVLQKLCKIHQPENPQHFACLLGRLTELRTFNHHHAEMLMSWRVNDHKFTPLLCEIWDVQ
Assay: human FXR competition assay (GAL4-FXR chimeric receptor luciferase, HEK293T)
Type: cell-based
Conditions: in the presence of GW4064
Method: Luciferase detection was conducted using the Dual Luciferase Reporter Assay kit (Promega Corp., Madison, Wis.) and a Tecan GeniosPro luminescent plate reader (Research Triangle Park, N.C.).
Luciferase detection was conducted using the Dual Luciferase Reporter Assay kit (Promega; Madison, Wis.) and a Tecan GeniosPro™ luminescent plate reader (Research Triangle Park, N.C.).

| Compound | FXR activity induced by synthetic agonist GW4064 (luciferase, normalized to Renilla) |
| --- | --- |
| C[C@H](CCC(=O)NCCS(=O)(=O)O)[C@H]1CC[C@H]2[C@@H]3[C@H](O)[C@@H](O)[C@@H]4C[C@H](O)CC[C@]4(C)[C@H]3CC[C@]12C [TαMCA] | inhibited FXR |
| C[C@H](CCC(=O)NCCS(=O)(=O)O)[C@H]1CC[C@H]2[C@@H]3[C@@H](O)[C@H](O)[C@@H]4C[C@H](O)CC[C@]4(C)[C@H]3CC[C@]12C [TWMCA] | inhibited FXR |
